Legend:
[1] = biological target: CtermHisTag-mEGFR Triple Mutant - C797S, L858R, T790M (Homo sapiens, UniProt P00533, C797S/L858R/T790M); assay: TR-FRET probe displacement assay, EGFR triple mutant; format: binding; details: T790M 1.25 nM, probe 100 nM, 30 mins room temperature
Protocol: (§1) Compounds (dissolved to 100 mM in DMSO) were dispensed into black low volume 384 well assay plates (Corning) over a final concentration range of 100000, 30000, 10000, 3000, 1000, 300, 100, 30, 10, and 3 nM using an Echo 550 (Labcyte). Positive control compound and DMSO as a negative control were dispensed into the first and last well, respectively. […]. Plates were read using a PheraStar FS (BMG Labtech) at Ex337 nm Ex490/520 nm. The data were analysed using Graphpad Prism/Dotmatics Studies Software. Assays conducted in technical replicate and repeated as a biological duplicate.

[2] = biological target: T1, Phospho-EGFR (Tyr1068) in H1975 cells (Homo sapiens, UniProt P00533, L858R/T790M); assay: HTRF pEGFR/total EGFR assay in H1975 cells; format: cell-based; details: compound 3 hours, ratio pEGFR/total EGFR
T1 construct: host or cells: H1975
Protocol: H1975 cells (ATCC CRL-5908) were plated at 20,000 cells per well in 96 well plates and placed at 37° C. 5% CO2. Once adhered (after 24h) cells were treated with compounds dissolved in DMSO at a final concentration of 0.1% DMSO in media. Compounds were diluted in media then added to cells for 3 hours in duplicate. Compound and media were removed from the cells, then 50ul of HTRF lysis buffer is added (lysis buffer was diluted from 4× stock to 1× in DI water, with 1% blocking agent also added). Cells were lysed on a plate shaker (2000 rpm) for 30 minutes at room temperature. pEGFR expression was monitored using the Cisbio Phospho-EGFR (Tyri068) cellular kit (64EG1 PEH). Total EGFR expression was monitored using the Cisbio Total EGFR cellular kit (64NG1 PEH) as per manufacturer's instructions. Fluorescence emission was read at two different wavelengths (665 nm and 620 nm) on a PheraStar. Results were calculated as ratio of pEGFR/total EGFR and then percentage of 0 uM control.

[3] = biological target: T2, Phospho-EGFR (Tyr1068) in A431 cells (Homo sapiens, UniProt P00533); assay: HTRF pEGFR/total EGFR assay in A431 cells (EGF stimulated); format: cell-based; details: compound 2.5 hours then 100 ng/ml EGF 30 mins, ratio pEGFR/total EGFR
T2 construct: endogenous in cells; host or cells: A431
T2 sequence (P00533 25-1210): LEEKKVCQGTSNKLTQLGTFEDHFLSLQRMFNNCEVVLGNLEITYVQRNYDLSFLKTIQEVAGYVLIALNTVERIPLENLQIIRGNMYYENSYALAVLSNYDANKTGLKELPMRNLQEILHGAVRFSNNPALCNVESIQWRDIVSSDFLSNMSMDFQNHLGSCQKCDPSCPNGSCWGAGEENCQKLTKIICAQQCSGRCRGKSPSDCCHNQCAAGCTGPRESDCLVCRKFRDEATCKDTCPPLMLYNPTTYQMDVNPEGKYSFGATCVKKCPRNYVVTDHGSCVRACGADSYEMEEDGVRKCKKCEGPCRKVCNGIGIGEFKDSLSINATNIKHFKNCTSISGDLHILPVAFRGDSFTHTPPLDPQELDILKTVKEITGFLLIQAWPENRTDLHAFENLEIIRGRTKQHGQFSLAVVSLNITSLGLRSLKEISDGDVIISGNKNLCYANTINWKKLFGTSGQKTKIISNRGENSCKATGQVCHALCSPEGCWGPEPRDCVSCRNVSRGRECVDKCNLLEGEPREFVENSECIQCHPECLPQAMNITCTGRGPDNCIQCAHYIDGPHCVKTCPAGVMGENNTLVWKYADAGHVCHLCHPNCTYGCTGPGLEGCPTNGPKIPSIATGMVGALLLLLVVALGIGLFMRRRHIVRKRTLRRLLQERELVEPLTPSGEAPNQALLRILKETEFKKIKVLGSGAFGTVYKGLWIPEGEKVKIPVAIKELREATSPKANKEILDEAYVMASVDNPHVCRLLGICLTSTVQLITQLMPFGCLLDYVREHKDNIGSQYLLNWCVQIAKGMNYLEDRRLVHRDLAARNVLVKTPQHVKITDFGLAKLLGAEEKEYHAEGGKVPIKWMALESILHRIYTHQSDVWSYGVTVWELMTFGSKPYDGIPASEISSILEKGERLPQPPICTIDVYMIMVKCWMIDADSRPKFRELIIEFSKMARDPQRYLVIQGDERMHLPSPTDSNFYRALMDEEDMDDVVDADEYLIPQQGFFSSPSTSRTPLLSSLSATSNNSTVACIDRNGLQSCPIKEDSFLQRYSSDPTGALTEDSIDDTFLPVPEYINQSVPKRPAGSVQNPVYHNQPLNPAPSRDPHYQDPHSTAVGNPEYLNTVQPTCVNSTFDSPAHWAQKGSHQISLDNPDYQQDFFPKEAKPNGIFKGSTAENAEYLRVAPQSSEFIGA
Protocol: Cells were plated at 20,000 cells per well in 96 well plates and placed at 37° C. 5% CO2. Once adhered (after 24h) cells were treated with compounds dissolved in DMSO at a final concentration of 0.1% DMSO in media. Compounds were diluted in media then added to cells for 2.5 hours in duplicate, 100 ng/ml EGF (ThermoFisher, PHG0311 was is added to all compound treated cells as well as a control for 30 mins. Compound and media were removed from the cells, then 50ul of HTRF lysis bufferwas added (lysis bufferwas diluted from 4× stock to 1× in DI water, with 1% blocking agent also added). Cells were lysed on a plate shaker (2000 rpm) for 30 minutes at room temperature. pEGFR expression was monitored using the Cisbio Phospho-EGFR (Tyr1068) cellular kit (64EG1PEH). Total EGFR expression was monitored using the Cisbio Total EGFR cellular kit (64NG1PEH) as per manufacturer's instructions. Fluorescence emission was read at two different wavelengths (665 nm and 620 nm) on a PheraStar. Results were calculated as ratio of pEGFR/total EGFR and then percentage of OuM control.

[4] = biological target: T3, Phospho-EGFR (Tyr1068) in H1975 C797S cells (Homo sapiens, UniProt P00533, C797S/L858R/T790M); assay: HTRF pEGFR/total EGFR assay in H1975 C797S cells; format: cell-based; details: H1975 C797S cells (CRISPR), compound 3 hours, ratio pEGFR/total EGFR
T3 construct: endogenous in cells; host or cells: H1975 C797S (CRISPR-edited in house from ATCC CRL-5908)
T3 sequence (P00533 25-1210 T790M/C797S/L858R): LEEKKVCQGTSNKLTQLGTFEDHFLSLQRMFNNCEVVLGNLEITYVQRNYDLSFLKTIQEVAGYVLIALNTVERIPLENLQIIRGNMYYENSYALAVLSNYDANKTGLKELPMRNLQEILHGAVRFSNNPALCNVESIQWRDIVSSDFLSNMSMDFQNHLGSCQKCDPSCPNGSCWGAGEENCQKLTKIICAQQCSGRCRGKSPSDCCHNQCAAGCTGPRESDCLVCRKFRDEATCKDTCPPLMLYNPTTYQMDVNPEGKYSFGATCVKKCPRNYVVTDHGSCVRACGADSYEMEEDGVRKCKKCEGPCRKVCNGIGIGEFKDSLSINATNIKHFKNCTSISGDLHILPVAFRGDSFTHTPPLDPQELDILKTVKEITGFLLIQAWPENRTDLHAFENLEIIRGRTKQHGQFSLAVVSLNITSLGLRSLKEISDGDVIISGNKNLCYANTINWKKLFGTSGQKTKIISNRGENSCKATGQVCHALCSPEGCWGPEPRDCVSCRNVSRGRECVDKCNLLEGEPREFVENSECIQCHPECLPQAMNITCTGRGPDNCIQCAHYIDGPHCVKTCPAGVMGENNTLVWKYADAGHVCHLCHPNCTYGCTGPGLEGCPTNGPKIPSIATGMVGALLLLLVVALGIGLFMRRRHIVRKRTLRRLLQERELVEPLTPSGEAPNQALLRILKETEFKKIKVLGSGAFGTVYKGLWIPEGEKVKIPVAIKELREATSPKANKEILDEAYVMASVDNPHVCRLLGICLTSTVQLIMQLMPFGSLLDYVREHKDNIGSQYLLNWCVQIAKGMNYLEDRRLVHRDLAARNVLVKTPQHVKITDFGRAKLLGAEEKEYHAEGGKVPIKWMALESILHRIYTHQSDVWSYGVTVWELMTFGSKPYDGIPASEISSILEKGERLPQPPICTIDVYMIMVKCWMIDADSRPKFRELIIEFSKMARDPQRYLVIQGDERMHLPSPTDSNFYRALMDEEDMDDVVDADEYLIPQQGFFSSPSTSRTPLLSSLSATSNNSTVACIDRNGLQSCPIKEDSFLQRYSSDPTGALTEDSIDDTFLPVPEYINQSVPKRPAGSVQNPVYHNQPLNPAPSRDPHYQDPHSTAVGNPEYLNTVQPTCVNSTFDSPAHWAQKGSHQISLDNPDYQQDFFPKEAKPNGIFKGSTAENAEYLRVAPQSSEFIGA
Protocol: H1975 C797S cells (ATCC CRL-5908) were genetically engineered by CRISPR editing of EGFR C797S in house and validated by NGS. Cells were plated at 20,000 cells per well in 96 well plates and placed at 37° C. 5% CO2. Once adhered (after 24h) cells were treated with compounds dissolved in DMSO at a final concentration of 0.1% DMSO in media. Compounds were diluted in media then added to cells for 3 hours in duplicate. Compound and media were removed from the cells, then 50 ul of HTRF lysis buffer was added (lysis buffer was diluted from 4× stock to 1× in DI water, with 1% blocking agent also added). Cells were lysed on a plate shaker (2000 rpm) for 30 minutes at room temperature. pEGFR expression was monitored using the Cisbio Phospho-EGFR (Tyr1068) cellular kit (64EG1PEH). Total EGFR expression was monitored using the Cisbio Total EGFR cellular kit (64NG1PEH) as per manufacturer's instructions. Fluorescence emission was read at two different wavelengths (665 nm and 620 nm) on a PheraStar. Results were calculated as ratio of pEGFR/total EGFR and then percentage of 0 uM control.

[5] = biological target: CtermHisTag-mEGFR Wild type (Homo sapiens, UniProt P00533); assay: TR-FRET probe displacement assay, EGFR wild type; format: binding; details: EGFR wild type 1.25 nM, probe 100 nM, 30 mins room temperature
Chain of CtermHisTag-mEGFR Wild type (P00533 25-1210): as the sequence (P00533 25-1210) above
Protocol: as §1

Chain of CtermHisTag-mEGFR Triple Mutant - C797S, L858R, T790M (P00533 25-1210 T790M/C797S/L858R): as the sequence (P00533 25-1210 T790M/C797S/L858R) above

| IC50 [1] [nM] | IC50 [2] [nM] | IC50 [3] [nM] | IC50 [4] [nM] | IC50 [5] [nM] | SMILES |
| --- | --- | --- | --- | --- | --- |
| 100 to 1000 | > 3000 | > 3000 | > 3000 | > 10000 | C#Cc1cc(NC(=O)N(C)C)nc2nc(Nc3ccc(N4CCN(C)CC4)cc3)ncc12 [Example 37, 1-(5-ethynyl-2-{[4-(4-methylpiperazin-1-yl)phenyl]amino}pyrido[2,3-d]pyrimidin-7-yl)-3,3-dimethylurea] |
| < 20 | < 500 | < 500 | < 500 | < 1000 | C#Cc1cc(NC(=O)NC2CCCC2)nc2nc(Nc3ccc(N4CCN(C)CC4)cc3)ncc12 [Example 38, 1-cyclopentyl-3-(5-ethynyl-2-((4-(4-methylpiperazin-1-yl)phenyl)amino)pyrido[2,3-d]pyrimidin-7-yl)urea] |
| < 20 | < 500 | > 3000 | < 500 | < 1000 | C#Cc1cc(NC(=O)NCc2ccccc2)nc2nc(Nc3ccc(N4CCN(C)CC4)cc3)ncc12 [Example 39, 1-benzyl-3-(5-ethynyl-2-{[4-(4-methylpiperazin-1-yl)phenyl]amino}pyrido[2,3-d]pyrimidin-7-yl)urea] |
| < 20 | < 500 | > 3000 | < 500 | < 1000 | C#Cc1cc(NC(=O)NCC2CCCC2)nc2nc(Nc3ccc(N4CCN(C)CC4)cc3)ncc12 [Example 40, 3-(cyclopentylmethyl)-1-(5-ethynyl-2-{[4-(4-methylpiperazin-1-yl)phenyl]amino}pyrido[2,3-d]pyrimidin-7-yl)urea] |
| < 20 | < 500 | 1000 to 3000 | < 500 | < 1000 | C#Cc1cc(NC(=O)NC2CCC2)nc2nc(Nc3ccc(N4CCN(C)CC4)cc3)ncc12 [Example 41, 3-cyclobutyl-1-(5-ethynyl-2-{[4-(4-methylpiperazin-1-yl)phenyl]amino}pyrido[2,3-d]pyrimidin-7-yl)urea] |
| < 20 | < 500 | > 3000 | < 500 | < 1000 | C#Cc1cc(NC(=O)NC2CCOC2)nc2nc(Nc3ccc(N4CCN(C)CC4)cc3)ncc12 (stereo not shown) [Example 42, 1-(5-ethynyl-2-{[4-(4-methylpiperazin-1-yl)phenyl]amino}pyrido[2,3-d]pyrimidin-7-yl)-3-(oxolan-3-yl)urea] |
| < 20 | < 500 | > 3000 | < 500 | < 1000 | C#Cc1cc(NC(=O)NC2COC2)nc2nc(Nc3ccc(N4CCN(C)CC4)cc3)ncc12 [Example 43, 1-(5-ethynyl-2-{[4-(4-methylpiperazin-1-yl)phenyl]amino}pyrido[2,3-d]pyrimidin-7-yl)-3-(oxetan-3-ylI)urea] |
| < 20 | < 500 | 1000 to 3000 | < 500 | < 1000 | C#Cc1cc(NC(=O)NC2CC2)nc2nc(Nc3ccc(N4CCN(C)CC4)cc3)ncc12 [Example 44, 3-cyclopropyl-1-(5-ethynyl-2-{[4-(4-methylpiperazin-1-yl)phenyl]amino}pyrido[2,3-d]pyrimidin-7-yl)urea] |
| 20 to 100 | 500 to 1000 | > 3000 | 1000 to 3000 | < 1000 | C#Cc1cc(NC(=O)NCc2cnco2)nc2nc(Nc3ccc(N4CCN(C)CC4)cc3)ncc12 [Example 45, 1-(5-ethynyl-2-{[4-(4-methylpiperazin-1-yl)phenyl]amino}pyrido[2,3-d]pyrimidin-7-yl)-3-(1,3-oxazol-5-ylmethyl)urea] |
| < 20 | > 3000 | > 3000 | > 3000 | < 1000 | C#Cc1cc(NC(=O)NCc2cncn2C)nc2nc(Nc3ccc(N4CCN(C)CC4)cc3)ncc12 [Example 46, 1-(5-ethynyl-2-{[4-(4-methylpiperazin-1-yl)phenyl]amino}pyrido[2,3-d]pyrimidin-7-yl)-3-[(3-methylmidazol-4-yl)methyl]urea] |
| 20 to 100 | 500 to 1000 | > 3000 | 1000 to 3000 | < 1000 | C#Cc1cc(NC(=O)NCc2ccno2)nc2nc(Nc3ccc(N4CCN(C)CC4)cc3)ncc12 [Example 47, 1-(5-ethynyl-2-{[4-(4-methylpiperazin-1-yl)phenyl]amino}pyrido[2,3-d]pyrimidin-7-yl)-3-(1,2-oxazol-5-ylmethyl)urea] |
| < 20 | < 500 | > 3000 | < 500 | < 1000 | C#Cc1cc(NC(=O)NCc2ccnn2C)nc2nc(Nc3ccc(N4CCN(C)CC4)cc3)ncc12 [Example 48, 1-(5-ethynyl-2-{[4-(4-methylpiperazin-1-yl)phenyl]amino}pyrido[2,3-d]pyrimidin-7-yl)-3-[(2-methylpyrazol-3-yl)methyl]urea] |
| 20 to 100 | 500 to 1000 | > 3000 | 1000 to 3000 | < 1000 | C#Cc1cc(NC(=O)NCc2ccccn2)nc2nc(Nc3ccc(N4CCN(C)CC4)cc3)ncc12 [Example 49, 3-(5-ethynyl-2-{[4-(4-methylpiperazin-1-yl)phenyl]amino}pyrido[2,3-d]pyrimidin-7-yl)-1-(pyridin-2-ylmethyl)urea] |
| 20 to 100 | < 500 | > 3000 | 500 to 1000 | < 1000 | C#Cc1cc(NC(=O)NCC2CCCO2)nc2nc(Nc3ccc(N4CCN(C)CC4)cc3)ncc12 (stereo not shown) [Example 50, 1-(5-ethynyl-2-{[4-(4-methylpiperazin-1-yl)phenyl]amino}pyrido[2,3-d]pyrimidin-7-yl)-3-(oxolan-2-ylmethyl)urea] |
| < 20 | < 500 | > 3000 | < 500 | < 1000 | C#Cc1cc(NC(=O)NCC2CCOC2)nc2nc(Nc3ccc(N4CCN(C)CC4)cc3)ncc12 (stereo not shown) [Example 51, 1-(5-ethynyl-2-{[4-(4-methylpiperazin-1-yl)phenyl]amino}pyrido[2,3-d]pyrimidin-7-yl)-3-(oxolan-3-ylmethyl)urea] |
| 20 to 100 | > 3000 | > 3000 | > 3000 | 1000 to 10000 | C#Cc1cc(NC(=O)N[C@@H]2CCN(C(C)=O)C2)nc2nc(Nc3ccc(N4CCN(C)CC4)cc3)ncc12 [Example 52] |
| < 20 | 1000 to 3000 | > 3000 | > 3000 | < 1000 | C#Cc1cc(NC(=O)N[C@H]2CCN(C(C)=O)C2)nc2nc(Nc3ccc(N4CCN(C)CC4)cc3)ncc12 [Example 53, 3-[(3S)-1-acetylpyrrolidin-3-yl]-1-(5-ethynyl-2-{[4-(4-methylpiperazin-1-yl)phenyl]amino}pyrido[2,3-d]pyrimidin-7-yl)urea] |

— US20260176265A1 (Cancer Research Technology Limited, priority 2022, published 2026)
